Measured values taken from ChEMBL document CHEMBL3286269, “Group A streptococcus inhibitors by high-throughput virtual screening” (2014).
In brackets after ≈: the same amount, converted by molar mass.

Test system: Streptococcus sp. 'group A'
Assay: Antibacterial activity against group A streptococcus MGAS2221 after 12 hrs by microscopic count analysis
Format: functional
Details: MGAS2221, 12 h

| MIC [µM] | SMILES |
| --- | --- |
| 20 (≈ 3.82 µg/mL) | O=Cc1cc(Cl)cc(Cl)c1O |
| 20 (≈ 4.68 µg/mL) | OCC/N=C/c1cc(Cl)cc(Cl)c1O |
| 20 (≈ 5.48 µg/mL) | Oc1c(Cl)cc(Cl)cc1/C=N/CC1CCCO1 (configuration not stated) |

More lines, now with the values behind:

| SMILES | MIC [µM] |
| --- | --- |
| O=C1NN=CC1CCC/N=C/c1cc(Cl)cc(Cl)c1O (configuration not stated) | 10 (≈ 3.14 µg/mL) |
| Oc1c(Cl)cc(Cl)cc1/C=N/CC1CCC(C/N=C/c2cc(Cl)cc(Cl)c2O)CC1 (configuration not stated) | 10 (≈ 4.88 µg/mL) |
| O=C1NN=CC1CCC/N=C/c1cc(Br)ccc1O (configuration not stated) | 40 (≈ 13 µg/mL) |
| Cc1ccc([N+](=O)[O-])c(NC(=O)NC(=O)c2c(Cl)cccc2Cl)c1C | 50 (≈ 19.1 µg/mL) |
